Tests used:
[1] = molar enthalpy of vaporization or sublimation; conditions: 341.73 K; Liquid; Static calorimetry
[2] = molar heat capacity at constant pressure; conditions: 101.33 kPa, Small sample (50 mg) DSC
[3] = Molar enthalpy of transition or fusion; conditions: Crystal; DSC
[4] = Crystal

CCCCC(=O)c1ccc(O)cc1 [1-(4-hydroxyphenyl)-1-pentanone]
Conditions	Molar enthalpy of transition or fusion [kcal/mol]	molar enthalpy [kcal/mol]
[1]	–	22.96
[3]	6.15	–

[2]
Conditions	molar heat capacity at constant pressure [J/K/mol]
288.67 K, Crystal	235
288.92 K, Crystal	235.9
289.17 K, Crystal	235.2
289.42 K, Crystal	236.4
289.67 K, Crystal	236
289.92 K, Crystal	235.3
290.17 K, Crystal	236.5
290.42 K, Crystal	236.3
290.68 K, Crystal	238
290.93 K, Crystal	236.4
291.18 K, Crystal	236.8
291.43 K, Crystal	238
291.68 K, Crystal	237.8
291.93 K, Crystal	236.7
292.18 K, Crystal	237.4
292.43 K, Crystal	238.5
292.68 K, Crystal	239
292.93 K, Crystal	239.6
293.18 K, Crystal	239.6
293.43 K, Crystal	240
293.68 K, Crystal	240.4
293.93 K, Crystal	239.8
294.18 K, Crystal	239.1
294.44 K, Crystal	239.1
294.69 K, Crystal	240.8
294.94 K, Crystal	240.4
295.19 K, Crystal	239.8
295.44 K, Crystal	240.5
295.69 K, Crystal	241.6
295.94 K, Crystal	241.1
296.19 K, Crystal	240.8
296.44 K, Crystal	242.1
296.69 K, Crystal	241.7
296.94 K, Crystal	241.2
297.19 K, Crystal	241.5
297.44 K, Crystal	242.2
297.69 K, Crystal	241.6
297.94 K, Crystal	242.5
298.19 K, Crystal	242.7
298.44 K, Crystal	242.8
298.69 K, Crystal	241.8
298.94 K, Crystal	242.3
299.19 K, Crystal	242.3
299.44 K, Crystal	242.2
299.69 K, Crystal	242.9
299.94 K, Crystal	244.1
300.19 K, Crystal	244.9
300.44 K, Crystal	244.3
300.69 K, Crystal	244.4
300.94 K, Crystal	244.7
301.19 K, Crystal	244.5
301.44 K, Crystal	243.4
301.69 K, Crystal	244.2
301.94 K, Crystal	244.9
302.19 K, Crystal	245.3
302.44 K, Crystal	245.1
302.69 K, Crystal	244.8
302.94 K, Crystal	245.6
303.19 K, Crystal	246.4
303.44 K, Crystal	246.5
303.69 K, Crystal	247
303.94 K, Crystal	247.4
304.19 K, Crystal	247.3
304.44 K, Crystal	247.5
304.69 K, Crystal	246.8
304.94 K, Crystal	246.8
305.19 K, Crystal	247.1
305.44 K, Crystal	248.1
305.69 K, Crystal	247.8
305.94 K, Crystal	247.5
306.19 K, Crystal	247.7
306.44 K, Crystal	248.9
306.69 K, Crystal	248.8
306.94 K, Crystal	249.6
307.19 K, Crystal	250.4
307.44 K, Crystal	250.1
307.69 K, Crystal	250.1
307.94 K, Crystal	249.4
308.19 K, Crystal	249.7
308.44 K, Crystal	250.1
308.69 K, Crystal	249.7
308.94 K, Crystal	250.3
309.19 K, Crystal	250.8
309.44 K, Crystal	251.7
309.69 K, Crystal	252.9
309.94 K, Crystal	251.9
310.19 K, Crystal	253.2
310.44 K, Crystal	253.8
310.69 K, Crystal	253.1
310.94 K, Crystal	253.2
311.19 K, Crystal	252.6
311.44 K, Crystal	252.4
311.69 K, Crystal	253.1
311.94 K, Crystal	252.2
312.19 K, Crystal	252.8
312.44 K, Crystal	252.4
312.69 K, Crystal	253.6
312.94 K, Crystal	254
313.19 K, Crystal	253.3
313.44 K, Crystal	254.6
313.69 K, Crystal	255.2
313.94 K, Crystal	255
314.19 K, Crystal	255.4
314.44 K, Crystal	256.5
314.69 K, Crystal	256.9
314.94 K, Crystal	256.1
315.19 K, Crystal	256
315.44 K, Crystal	255.8
315.69 K, Crystal	255.8
315.94 K, Crystal	256
316.19 K, Crystal	256.4
316.44 K, Crystal	256.4
316.69 K, Crystal	257.2
316.94 K, Crystal	258
317.19 K, Crystal	257.2
317.44 K, Crystal	257.6
317.69 K, Crystal	257.8
317.94 K, Crystal	257.4
318.19 K, Crystal	257
318.44 K, Crystal	258.3
318.69 K, Crystal	258.9
318.94 K, Crystal	259.1
319.19 K, Crystal	260.1
319.44 K, Crystal	259.4
319.69 K, Crystal	260.1
319.94 K, Crystal	259.7
320.19 K, Crystal	259.7
320.44 K, Crystal	260.3
320.69 K, Crystal	260.6
320.94 K, Crystal	261.2
321.19 K, Crystal	261.4
321.44 K, Crystal	260.7
321.69 K, Crystal	260.9
321.94 K, Crystal	260.9
322.19 K, Crystal	261.4
322.44 K, Crystal	262.1
322.69 K, Crystal	262.7
322.94 K, Crystal	262.6
323.19 K, Crystal	263.3
323.44 K, Crystal	263.3
323.69 K, Crystal	262.8
323.94 K, Crystal	263
324.19 K, Crystal	264.1
324.44 K, Crystal	264.2
324.69 K, Crystal	264.3
324.94 K, Crystal	265.1
325.19 K, Crystal	265.2
325.44 K, Crystal	265.1
325.69 K, Crystal	265.8
325.94 K, Crystal	266.1
326.19 K, Crystal	266.1
326.44 K, Crystal	267.6
326.69 K, Crystal	267.8
326.94 K, Crystal	267.5
327.19 K, Crystal	267.3
327.44 K, Crystal	267.7
327.69 K, Crystal	268.3
327.94 K, Crystal	268.4
328.19 K, Crystal	268.9
328.44 K, Crystal	269.8
328.69 K, Crystal	269.8
328.94 K, Crystal	270.3
329.19 K, Crystal	270.3
329.44 K, Crystal	272
329.69 K, Crystal	273.2
329.94 K, Crystal	272.8
330.19 K, Crystal	273.6
330.44 K, Crystal	273.2
330.69 K, Crystal	275.7
330.94 K, Crystal	275.7
331.19 K, Crystal	277.6
331.44 K, Crystal	277.9
331.69 K, Crystal	278.6
331.94 K, Crystal	280.4
332.19 K, Crystal	281.8
332.44 K, Crystal	283.8
332.69 K, Crystal	285.5
332.94 K, Crystal	287.6
333.19 K, Crystal	291.7
333.44 K, Crystal	295.7
340.69 K, Liquid	393.2
340.94 K, Liquid	373.9
341.19 K, Liquid	368.2
341.44 K, Liquid	365.9
341.69 K, Liquid	367
341.94 K, Liquid	367.1
342.19 K, Liquid	366.1
342.44 K, Liquid	366.4
342.69 K, Liquid	368.5
342.94 K, Liquid	384.8
343.19 K, Liquid	386
343.44 K, Liquid	368.7
343.69 K, Liquid	364.2
343.94 K, Liquid	364.3
344.19 K, Liquid	364.4
344.44 K, Liquid	365
344.69 K, Liquid	366.8
344.94 K, Liquid	368.6
345.19 K, Liquid	369.5
345.44 K, Liquid	369.4
345.69 K, Liquid	370.7
345.94 K, Liquid	371
346.19 K, Liquid	371
346.44 K, Liquid	370.7
346.69 K, Liquid	371
346.94 K, Liquid	372.4
347.19 K, Liquid	373.1
347.44 K, Liquid	372.8
347.69 K, Liquid	373.7
347.94 K, Liquid	374
348.19 K, Liquid	373.1
348.44 K, Liquid	372.9
348.69 K, Liquid	371.8
348.94 K, Liquid	372
349.19 K, Liquid	373
349.44 K, Liquid	374.4
349.69 K, Liquid	374.8
349.94 K, Liquid	374
350.19 K, Liquid	374.1
350.44 K, Liquid	375.3
350.69 K, Liquid	374.9
350.94 K, Liquid	373.9
351.19 K, Liquid	375
351.44 K, Liquid	376.6
351.68 K, Liquid	375.6
351.93 K, Liquid	376.3

Conditions	mass density [kg/m3]
[4], 298 K, 101.33 kPa, X-ray diffraction	1204.5

Conditions	Normal melting temperature [°C]
[4], DTA	61.1

From the NIST ThermoML archive (doi:10.1016/j.jct.2016.09.026)
